Results published in patent publication US9458203B2, “Integrin-blocking polypeptides and uses thereof” (priority 2011, dated 2016).
Where two headings read alike, the source gives them in different places. Ends that are not written are not given here.

Assays:
Details in all cases: mouse, in vivo
[1] = test system: human liver cancer SMMC-7721
Description: (§2) Taking a certain amount of vigorously growing tumor tissue, grinding the tumor tissue under sterile conditions and preparing cell suspension at the concentration of 1×10^7 cells/ml; then hypodermicaly inoculating 0.1 ml of the cell suspension into the right axillary region of nude mice. Keeping measuring the diameter of the transplanted tumor with a vernier caliper, and randomly dividing the mice into groups when the volume of the tumor reached 100-200 mm^3. Observing the dynamic effect of integrin-blocking polypeptides on inhibiting the growth of the tumor by means of documenting the change of tumor diameters. Measuring the tumor diameter once every other day and recording the body weight of mice simultaneously. Intravenously injecting polypeptides to mice from test groups while administering equal quantity of physiological saline to mice from the negative control group. The total medication period was 14 days. Avastin was adopted to set up a positive control group; it was administered through the tail vein once every three days while all other drugs were administered through the tail vein once a day. Leaving mice for a one-week rest after 14 days' medication, then (21 days after medication) killing the mice, surgically dissecting the tumors and measuring the weight of tumors. The tumor volume (TV) was calculated in accordance with the following formula: TV=½×a×b^2
(§3) Taxol used in the positive control group was administered once every 3 days through tail vein injection, while drugs of all other groups were administered on daily basis through tail vein injection.

[2] = test system: human cervical cancer HeLa; assay type: in vivo, nude mice
Description: (§4) Taking a certain amount of vigorously growing tumor tissue, grinding the tumor tissue under sterile conditions and preparing cell suspension at the concentration of 1×10^7 cells/ml; then hypodermicaly inoculating 0.1 ml of the cell suspension into the right axillary region of nude mice. Keeping measuring the diameter of the transplanted tumor with a vernier caliper, and randomly dividing the mice into groups when the volume of the tumor reached 100-200 mm^3. […] Measuring the tumor diameter once every other day and recording the body weight of mice simultaneously. Intravenously injecting polypeptides to mice from test groups while administering equal quantity of physiological saline to mice from the negative control group. The total medication period was 14 days. Avastin was adopted to set up a positive control group; it was administered through the tail vein once every three days while all other drugs were administered through the tail vein once a day. Leaving mice for a one-week rest after 14 days' medication, then (21 days after medication) killing the mice, surgically dissecting the tumors and measuring the weight of tumors. The tumor volume (TV) was calculated in accordance with the following formula: TV=½×a×b^2

[3] = test system: human renal cancer A498; assay type: in vivo, nude mice
Description: as §4

[4] = test system: human colon cancer HT-29; assay type: in vivo, nude mice
Description: as §4

[5] = test system: human gallbladder cancer GBC-SD
Description: as §2
Avastin used in the positive control group was administered once every 2 days through tail vein injection, while drugs of all other groups were administered on daily basis through tail vein injection.

[6] = test system: human ovarian cancer SK-OV-3; assay type: in vivo, nude mice
Description: as §4

[7] = test system: human lung cancer H460
Description: as §2, §3

[8] = test system: melanoma B16F10; test: transplanted melanoma B16F10 in C57BL/6 black mice
Description: Hypodermically injecting polypeptides and other drugs into the left axillary region of mice from the experimental groups respectively while administering only equal quantity of physiological saline to the mice from the negative control group. The total medication period was 14 days, during which cyclophosphamide was administered once every other day, taxol once every three days, low-dose polypeptide twice a day and all other drugs once a day.

[9] = test system: human gastric cancer MGC-803
Description: Keeping measuring the diameter of the transplanted tumor with a vernier caliper, and randomly dividing the mice into groups when the volume of the tumor reached 100-200 mm^3. Observing the dynamic effect of integrin-blocking polypeptides on inhibiting the growth of the tumor by means of documenting the change of tumor diameters. Measuring the tumor diameter once every other day and recording the body weight of mice simultaneously. Intravenously injecting polypeptides to mice from test groups while administering equal quantity of physiological saline to mice from the negative control group. The total medication period was 14 days. Avastin was adopted to set up a positive control group; it was administered through the tail vein once every three days while all other drugs were administered through the tail vein once a day. Leaving mice for a one-week rest after 14 days' medication, then (21 days after medication) killing the mice, surgically dissecting the tumors and measuring the weight of tumors. The tumor volume (TV) was calculated in accordance with the following formula: TV=½×a×b^2

[10] = test system: human laryngeal cancer Hep-2; test: heterotransplanted human laryngeal cancer Hep-2 in nude mice; assay type: in vivo
Excerpt: (§1) The total medication period was 14 days.

[11] = test system: human breast cancer MDA-MB-231
Description: as §2
wherein a, b refer to the length and width of the tumor respectively.
The relative tumor volume (RTV) can be calculated in accordance with the results of measurement, using the formula: RTV=Vt/V0, wherein V0 refers to the initial tumor volume measured on the date starting medication (namely d0) while Vt the tumor volume obtained through every measurement. The anti-tumor activity was evaluated by relative proliferation rate T/C (%), which was calculated in accordance with the following formula:
wherein TRTV refers to the RTV of experimental groups; CRTV refers to the RTV of the negative control group.

[12] = assay type: in vivo, nude mice
Excerpt: as §1

[13] = test system: human testicular cancer 5637; assay type: in vivo, nude mice
Excerpt: as §1

[14] = test system: human esophageal cancer Ec109; assay type: in vivo, nude mice
Excerpt: as §1

[15] = test system: sarcoma HT-1080; assay type: in vivo, nude mice
Excerpt: as §1

[16] = test system: human rectal cancer Colo 320
Description: as §2, §3

[17] = test system: human pancreatic cancer SW-1990; test: heterotransplanted human pancreatic cancer SW-1990 in nude mice; assay type: in vivo
Excerpt: as §1

[18] = test system: human thyroid cancer SW-579; assay type: in vivo, nude mice
Description: as §4

[19] = test system: human brain tumor SF763
Description: as §2, §3

[20] = test system: human endometrial cancer HHUA
Description: as §2, §3

[21] = test system: human prostate cancer DU-145; assay type: in vivo, nude mice
Description: as §4

[22] = test system: human bladder cancer HT1376; test: heterotransplanted human bladder cancer HT1376 in nude mice; assay type: in vivo
Excerpt: as §1

In the case of “RGDGGGGFQPVLHLVALNSPLSGGMRGIRGADFQCFQQARAVGLAGTFRA [polypeptide II]”, the “body weight of animals, in words” value [1] is reported as “no significant change in body weight”, the “toxic and side effects, in words” value [1] is reported as “no obvious toxic and side effects” and the “body weight of animals, in words” value [2] is reported as “no significant change in body weight”. The “toxic and side effects, in words” value [2] was “no obvious toxic and side effects”, the “body weight of animals, in words” value [3] was “no significant change in body weight” and the “toxic and side effects, in words” value [3] was “no obvious toxic and side effects”. The “body weight of animals, in words” value [4] was “no significant change in body weight”, the “toxic and side effects, in words” value [4] was “no obvious toxic and side effects” and the “body weight of animals, in words” value [5] was “no significant change in body weight”. The “toxic and side effects, in words” value [5] was “no obvious toxic and side effects”, the “body weight of animals, in words” value [6] was “no significant change in body weight” and the “toxic and side effects, in words” value [6] was “no obvious toxic and side effects”. The final weight ([6]; 0.75 mg/kg) was 23.07 ± 0.50 g, the final weight ([6]; 1.5 mg/kg) was 23.32 ± 0.50 g and the final weight ([6]; 3 mg/kg) was 22.97 ± 0.65 g. The “body weight of animals, in words” value [7] was “no significant change in body weight”, the “toxic and side effects, in words” value [7] was “no obvious toxic and side effects” and the “body weight of animals, in words” value [8] was “no significant change in body weight”. The “toxic and side effects, in words” value [8] was “no obvious toxic and side effects”, the “body weight of animals, in words” value [9] was “no significant change in body weight” and the “toxic and side effects, in words” value [9] was “no obvious toxic and side effects”. For the same sequence, the “body weight of animals, in words” value [10] was “no significant change in body weight”, the “toxic and side effects, in words” value [10] was “no obvious toxic and side effects” and the final weight ([10]; 0.75 mg/kg) was 22.88 ± 0.70 g. For the same sequence, the final weight ([10]; 1.5 mg/kg) was 22.98 ± 0.60 g, the final weight ([10]; 3 mg/kg) was 22.66 ± 0.61 g and the “body weight of animals, in words” value [11] was “no significant change in body weight”. The “toxic and side effects, in words” value [11] was “no obvious toxic and side effects”, the “body weight of animals, in words” value [12] was “no significant change in body weight” and the “toxic and side effects, in words” value [13] was “no obvious toxic and side effects”. The “body weight of animals, in words” value [14] was “no significant change in body weight”, the “toxic and side effects, in words” value [14] was “no obvious toxic and side effects” and the “body weight of animals, in words” value [15] was “no significant change in body weight”. The “toxic and side effects, in words” value [15] was “no obvious toxic and side effects”, the final weight ([15]; 0.75 mg/kg) was 22.93 ± 0.46 g and the final weight ([15]; 1.5 mg/kg) was 22.95 ± 0.46 g. The final weight ([15]; 3 mg/kg) was 23.04 ± 0.55 g, the “body weight of animals, in words” value [16] was “no significant change in body weight” and the “toxic and side effects, in words” value [16] was “no obvious toxic and side effects”. For the same sequence, the final weight ([16]; 0.75 mg/kg) was 22.85 ± 0.61 g, the final weight ([16]; 1.5 mg/kg) was 23.10 ± 0.61 g and the final weight ([16]; 3 mg/kg) was 22.99 ± 0.37 g. The “body weight of animals, in words” value [17] was “no significant change in body weight”, the “toxic and side effects, in words” value [17] was “no obvious toxic and side effects” and the “body weight of animals, in words” value [18] was “no significant change in body weight”. For the same sequence, the “toxic and side effects, in words” value [18] was “no obvious toxic and side effects”, the “body weight of animals, in words” value [19] was “no significant change in body weight” and the “toxic and side effects, in words” value [19] was “no obvious toxic and side effects”. It also gave a final weight ([19]; 0.75 mg/kg) of 22.95 ± 0.52 g, a final weight ([19]; 1.5 mg/kg) of 22.88 ± 0.52 g and a final weight ([19]; 3 mg/kg) of 23.24 ± 0.66 g. The “body weight of animals, in words” value [20] was “no significant change in body weight”, the “toxic and side effects, in words” value [20] was “no obvious toxic and side effects” and the “body weight of animals, in words” value [21] was “no significant change in body weight”. The “toxic and side effects, in words” value [21] was “no obvious toxic and side effects”, the “body weight of animals, in words” value [22] was “no significant change in body weight” and the “toxic and side effects, in words” value [22] was “no obvious toxic and side effects”.
